Measured values: ChEMBL document CHEMBL3352227, “Synthesis, antimycobacterial and antibacterial evaluation of l-[(1R, 2S)-2-fluorocyclopropyl]fluoroquinolone derivatives containing an oxime functional moiety” (Eur J Med Chem, 2014)
In brackets after ≈: the same amount, converted by molar mass.

What was measured:
Format in all cases: functional
[1] = system: Staphylococcus epidermidis; assay: Antibacterial activity against methicillin-sensitive Staphylococcus epidermidis 12-6 after 18 to 24 hrs by standard twofold serial dilution method
Escherichia coli [2] = assay: Antibacterial activity against Escherichia coli 12-1 after 18 to 24 hrs by standard twofold serial dilution method
Escherichia coli [3] = assay: Antibacterial activity against extended-spectrum beta-lactamase producing Escherichia coli 12-3 after 18 to 24 hrs by standard twofold serial dilution method
Pseudomonas aeruginosa [4] = assay: Antibacterial activity against Pseudomonas aeruginosa 12-12 after 18 to 24 hrs by standard twofold serial dilution method
Klebsiella pneumoniae [5] = assay: Antibacterial activity against Klebsiella pneumoniae 12-4 after 18 to 24 hrs by standard twofold serial dilution method
Escherichia coli [6] = assay: Antibacterial activity against extended-spectrum beta-lactamase producing Escherichia coli 12-15 after 18 to 24 hrs by standard twofold serial dilution method
[7] = system: Mycobacterium tuberculosis; assay: Antimycobacterial activity against Mycobacterium tuberculosis H37Rv ATCC 27294 by MABA method
Staphylococcus aureus [8] = assay: Antibacterial activity against methicillin-sensitive Staphylococcus aureus 12-4 after 18 to 24 hrs by standard twofold serial dilution method
Escherichia coli [9] = assay: Antibacterial activity against extended-spectrum beta-lactamase producing Escherichia coli 12-2 after 18 to 24 hrs by standard twofold serial dilution method
Klebsiella pneumoniae [10] = assay: Antibacterial activity against extended-spectrum beta-lactamase producin Klebsiella pneumoniae 12-7 after 18 to 24 hrs by standard twofold serial dilution method
Klebsiella pneumoniae [11] = assay: Antibacterial activity against extended-spectrum beta-lactamase producin Klebsiella pneumoniae 12-14 after 18 to 24 hrs by standard twofold serial dilution method
Klebsiella pneumoniae [12] = assay: Antibacterial activity against extended-spectrum beta-lactamase producin Klebsiella pneumoniae 12-4 after 18 to 24 hrs by standard twofold serial dilution method
Staphylococcus aureus [13] = assay: Antibacterial activity against methicillin-sensitive Staphylococcus aureus 12-2 after 18 to 24 hrs by standard twofold serial dilution method
Pseudomonas aeruginosa [14] = assay: Antibacterial activity against Pseudomonas aeruginosa 12-14 after 18 to 24 hrs by standard twofold serial dilution method
Klebsiella pneumoniae [15] = assay: Antibacterial activity against Klebsiella pneumoniae 12-1 after 18 to 24 hrs by standard twofold serial dilution method
Klebsiella pneumoniae [16] = assay: Antibacterial activity against extended-spectrum beta-lactamase producin Klebsiella pneumoniae 12-3 after 18 to 24 hrs by standard twofold serial dilution method
Streptococcus pneumoniae [17] = assay: Antibacterial activity against Streptococcus pneumoniae ATCC 49619 after 18 to 24 hrs by standard twofold serial dilution method
Staphylococcus aureus [18] = assay: Antibacterial activity against methicillin-resistant Staphylococcus aureus 12-5 after 18 to 24 hrs by standard twofold serial dilution method
[19] = system: Staphylococcus epidermidis; assay: Antibacterial activity against methicillin-sensitive Staphylococcus epidermidis 12-1 after 18 to 24 hrs by standard twofold serial dilution method
Staphylococcus aureus [20] = assay: Antibacterial activity against methicillin-sensitive Staphylococcus aureus 12-5 after 18 to 24 hrs by standard twofold serial dilution method
[21] = system: Staphylococcus epidermidis; assay: Antibacterial activity against methicillin-resistant Staphylococcus epidermidis 12-6 after 18 to 24 hrs by standard twofold serial dilution method
Escherichia coli [22] = assay: Antibacterial activity against Escherichia coli ATCC 25922 after 18 to 24 hrs by standard twofold serial dilution method
[23] = system: Staphylococcus epidermidis; assay: Antibacterial activity against methicillin-sensitive Staphylococcus epidermidis 12-3 after 18 to 24 hrs by standard twofold serial dilution method
Staphylococcus aureus [24] = assay: Antibacterial activity against methicillin-sensitive Staphylococcus aureus 12-1 after 18 to 24 hrs by standard twofold serial dilution method
Escherichia coli [25] = assay: Antibacterial activity against extended-spectrum beta-lactamase producing Escherichia coli 12-14 after 18 to 24 hrs by standard twofold serial dilution method
Staphylococcus aureus [26] = assay: Antibacterial activity against methicillin-resistant Staphylococcus aureus 12-4 after 18 to 24 hrs by standard twofold serial dilution method
Klebsiella pneumoniae [27] = assay: Antibacterial activity against Klebsiella pneumoniae 12-2 after 18 to 24 hrs by standard twofold serial dilution method
Streptococcus pneumoniae [28] = assay: Antibacterial activity against Streptococcus pneumoniae 12-18 after 18 to 24 hrs by standard twofold serial dilution method
Staphylococcus aureus [29] = assay: Antibacterial activity against methicillin-resistant Staphylococcus aureus 12-2 after 18 to 24 hrs by standard twofold serial dilution method
[30] = system: Staphylococcus epidermidis; assay: Antibacterial activity against methicillin-resistant Staphylococcus epidermidis 12-1 after 18 to 24 hrs by standard twofold serial dilution method
Staphylococcus aureus [31] = assay: Antibacterial activity against Staphylococcus aureus ATCC 25923 after 18 to 24 hrs by standard twofold serial dilution method
[32] = system: Staphylococcus epidermidis; assay: Antibacterial activity against methicillin-sensitive Staphylococcus epidermidis 12-8 after 18 to 24 hrs by standard twofold serial dilution method

| Structure (SMILES) | MIC [1] [µg/mL] | MIC (Escherichia coli [2]) [µg/mL] | MIC (Escherichia coli [3]) [µg/mL] | MIC (Pseudomonas aeruginosa [4]) [µg/mL] | MIC (Klebsiella pneumoniae [5]) [µg/mL] | MIC (Escherichia coli [6]) [µg/mL] | MIC [7] [µg/mL] | MIC (Staphylococcus aureus [8]) [µg/mL] | MIC (Escherichia coli [9]) [µg/mL] | MIC (Klebsiella pneumoniae [10]) [µg/mL] | MIC (Klebsiella pneumoniae [11]) [µg/mL] | MIC (Klebsiella pneumoniae [12]) [µg/mL] | MIC (Staphylococcus aureus [13]) [µg/mL] | MIC (Pseudomonas aeruginosa [14]) [µg/mL] | MIC (Klebsiella pneumoniae [15]) [µg/mL] | MIC (Klebsiella pneumoniae [16]) [µg/mL] | MIC (Streptococcus pneumoniae [17]) [µg/mL] | MIC (Staphylococcus aureus [18]) [µg/mL] | MIC [19] [µg/mL] | MIC (Staphylococcus aureus [20]) [µg/mL] | other results |
| --- | --- | --- | --- | --- | --- | --- | --- | --- | --- | --- | --- | --- | --- | --- | --- | --- | --- | --- | --- | --- | --- |
| CCO/N=C1/CN(c2cc3c(cc2F)c(=O)c(C(=O)O)cn3[C@@H]2C[C@@H]2F)[C@H]1CN | 0.125 (≈ 0.308 µM) | 0.125 (≈ 0.308 µM) | 8 (≈ 19.7 µM) | 0.5 (≈ 1.23 µM) | 0.06 (≈ 0.148 µM) | 128 (≈ 315 µM) | 2 (≈ 4.92 µM) | 0.06 (≈ 0.148 µM) | 32 (≈ 78.7 µM) | 0.5 (≈ 1.23 µM) | 32 (≈ 78.7 µM) | 8 (≈ 19.7 µM) | 0.06 (≈ 0.148 µM) | 32 (≈ 78.7 µM) | 0.06 (≈ 0.148 µM) | 32 (≈ 78.7 µM) | 0.06 (≈ 0.148 µM) | 16 (≈ 39.4 µM) | 0.125 (≈ 0.308 µM) | 0.125 (≈ 0.308 µM) | MIC [21]: 8 µg/mL (≈ 19.7 µM); MIC (Escherichia coli [22]): 0.03 µg/mL (≈ 0.0738 µM); MIC [23]: 0.5 µg/mL (≈ 1.23 µM); MIC (Staphylococcus aureus [24]): 0.125 µg/mL (≈ 0.308 µM); MIC (Escherichia coli [25]): 16 µg/mL (≈ 39.4 µM); MIC (Staphylococcus aureus [26]): 32 µg/mL (≈ 78.7 µM); MIC (Klebsiella pneumoniae [27]): 0.06 µg/mL (≈ 0.148 µM); MIC (Streptococcus pneumoniae [28]): 1 µg/mL (≈ 2.46 µM); MIC (Staphylococcus aureus [29]): 16 µg/mL (≈ 39.4 µM); MIC [30]: 4 µg/mL (≈ 9.84 µM); MIC (Staphylococcus aureus [31]): 0.03 µg/mL (≈ 0.0738 µM); MIC [32]: 2 µg/mL (≈ 4.92 µM) |
| NC[C@H]1/C(=N\OCc2ccccc2)CN1c1cc2c(cc1F)c(=O)c(C(=O)O)cn2[C@@H]1C[C@@H]1F | 0.125 (≈ 0.267 µM) | 2 (≈ 4.27 µM) | 16 (≈ 34.2 µM) | 2 (≈ 4.27 µM) | 0.25 (≈ 0.534 µM) | > 128 | 0.5 (≈ 1.07 µM) | 0.03 (≈ 0.064 µM) | 128 (≈ 273 µM) | 1 (≈ 2.13 µM) | 64 (≈ 137 µM) | 8 (≈ 17.1 µM) | 0.03 (≈ 0.064 µM) | 6 (≈ 12.8 µM) | 0.125 (≈ 0.267 µM) | 32 (≈ 68.3 µM) | 0.25 (≈ 0.534 µM) | 8 (≈ 17.1 µM) | 0.125 (≈ 0.267 µM) | 0.125 (≈ 0.267 µM) | MIC [21]: 16 µg/mL (≈ 34.2 µM); MIC (Escherichia coli [22]): 0.125 µg/mL (≈ 0.267 µM); MIC [23]: 0.25 µg/mL (≈ 0.534 µM); MIC (Staphylococcus aureus [24]): 0.125 µg/mL (≈ 0.267 µM); MIC (Escherichia coli [25]): 64 µg/mL (≈ 137 µM); MIC (Staphylococcus aureus [26]): 16 µg/mL (≈ 34.2 µM); MIC (Klebsiella pneumoniae [27]): 0.06 µg/mL (≈ 0.128 µM); MIC (Streptococcus pneumoniae [28]): 1 µg/mL (≈ 2.13 µM); MIC (Staphylococcus aureus [29]): 16 µg/mL (≈ 34.2 µM); MIC [30]: 4 µg/mL (≈ 8.54 µM); MIC (Staphylococcus aureus [31]): 0.015 µg/mL (≈ 0.032 µM); MIC [32]: 2 µg/mL (≈ 4.27 µM) |
| CO/N=C1/CN(c2cc3c(cc2F)c(=O)c(C(=O)O)cn3[C@@H]2C[C@@H]2F)[C@@H]1CN | 0.5 (≈ 1.27 µM) | 0.5 (≈ 1.27 µM) | 128 (≈ 326 µM) | 1 (≈ 2.55 µM) | 0.25 (≈ 0.637 µM) | > 128 | 1 (≈ 2.55 µM) | 0.25 (≈ 0.637 µM) | > 128 | 4 (≈ 10.2 µM) | 128 (≈ 326 µM) | 16 (≈ 40.8 µM) | 0.5 (≈ 1.27 µM) | 64 (≈ 163 µM) | 1 (≈ 2.55 µM) | 128 (≈ 326 µM) | 0.5 (≈ 1.27 µM) | 64 (≈ 163 µM) | 0.5 (≈ 1.27 µM) | 0.5 (≈ 1.27 µM) | MIC [21]: 16 µg/mL (≈ 40.8 µM); MIC (Escherichia coli [22]): 0.06 µg/mL (≈ 0.153 µM); MIC [23]: 1 µg/mL (≈ 2.55 µM); MIC (Staphylococcus aureus [24]): 0.5 µg/mL (≈ 1.27 µM); MIC (Escherichia coli [25]): 128 µg/mL (≈ 326 µM); MIC (Staphylococcus aureus [26]): 128 µg/mL (≈ 326 µM); MIC (Klebsiella pneumoniae [27]): 0.5 µg/mL (≈ 1.27 µM); MIC (Streptococcus pneumoniae [28]): 2 µg/mL (≈ 5.1 µM); MIC (Staphylococcus aureus [29]): 64 µg/mL (≈ 163 µM); MIC [30]: 16 µg/mL (≈ 40.8 µM); MIC (Staphylococcus aureus [31]): 0.5 µg/mL (≈ 1.27 µM); MIC [32]: 8 µg/mL (≈ 20.4 µM) |
